Source: patent US11505573B2, “Peptide macrocycles against Acinetobacter baumannii” (Hoffmann-La Roche Inc., priority 2018, dated 2022)

These molecules were tested on A. baumannii ATCC 17978 (assay: Antimicrobial susceptibility testing: 50% growth inhibitory concentration (IC50) determination in Iso-Sensitest broth). Conditions: Acinetobacter baumannii; A. baumannii strain ATCC17978; Iso-Sensitest medium; OD 600 nm over 16 h; 35±2° C.; read-out: IC50 ATCC17978 (50% growth inhibition concentration).
Assay type: cell-based
Description: Antimicrobial Susceptibility Testing: 50% Growth Inhibitory Concentration (IC50) Determination The in vitro antimicrobial activity of the compounds was alternatively determined according to the following procedure: The assay used a 10-points Iso-Sensitest broth medium to measure quantitatively the in vitro activity of the compounds against A. baumannii ATCC 17978. Stock compounds in DMSO were serially twofold diluted (e.g. range from 10 to 0.02 μM final concentration) in 384 wells microtiter plates and inoculated with 49 μl the bacterial suspension in Iso-Sensitest medium to have a final cell concentration of ˜5×10^(5) CFU/ml in a final volume/well of […] Microtiter plates were incubated at 35±2° C. Bacterial cell growth was determined by the measurement of optical density at λ=600 nm each 20 minutes over a time course of 16 h. Growth inhibition was calculated during the logarithmic growth of the bacterial cells by determination of the concentration inhibiting 50% (IC50) and 90% (IC90) of the growth. Table 1 provides the 50% growth inhibitory concentrations (IC50) in micromoles per liter of the compounds of present invention obtained against the A. baumannnii strain ATCC17978.

IC50 [nM]	SMILES
40	COc1ccc(-c2ccc(-c3nnn[nH]3)cc2)c2c1Sc1ncccc1CN[C@@H](CCCN)C(=O)N[C@@H](CCCCN)C(=O)N(C)[C@@H](Cc1c[nH]c3ccccc13)C(=O)NC2 [Example 15.01, (11S,14S,17S)-14-(4-Aminobutyl)-1-(3-aminopropyl)-17-(1H-indol-3-ylmethyl)-25-methoxy-16-methyl-22-[4-(1H-tetrazol-5-yl)phenyl]-2-thia-4,10,13,16,19-pentazatricyclo[19.4.0.03,8]pentacosa-1(25), 3(8),4,6,21,23-hexaene-12,15,18-trione]
310	CC(=O)NS(=O)(=O)c1ccc(-c2ccc(Cl)c3c2CNC(=O)[C@H](Cc2c[nH]c4ccccc24)N(C)C(=O)[C@H](CCCCN)NC(=O)[C@H](CCCO)NCc2cccnc2S3)cc1 [Example 16.00, N-[4-[(11S,14S,7S)-14-(4-aminobutyl)-25-chloro-11-(3-hydroxypropyl)-17-(1H-indol-3-ylmethyl)-16-methyl-12,15,18-trioxo-2-thia-4,10,13,16,19-pentazatricyclo[19.4.0.03,8]pentacosa-1(21),3,5,7,22,24-hexaen-22-yl]phenyl]sulfonylacetamide]
1840	CN1C(=O)[C@H](CCCCN)NC(=O)[C@H](CCCO)NCc2cccnc2Sc2c(Cl)ccc(-c3cnc(O)nc3)c2CNC(=O)[C@@H]1Cc1c[nH]c2ccccc12 [Example 16.01, (11S,14S,17S)-14-(4-Aminobutyl)-25-chloro-11-(3-hydroxypropyl)-22-(2-hydroxypyrimidin-5-yl)-17-(1H-indol-3-ylmethyl)-16-methyl-2-thia-4,10,13,16,19-pentazatricyclo[19.4.0.03,8]pentacosa-1(21),3,5,7,22,24-hexaene-12,15,18-trione]
5220	CC(=O)NS(=O)(=O)c1ccc(-c2ccc(Cl)c3c2CNC(=O)[C@H](Cc2c[nH]c4ccccc24)N(C)C(=O)[C@H](CCCCNCC(F)F)NC(=O)[C@H](CCCO)NCc2cccnc2S3)cc1 [Example 17.00, N-[4-[(11S,14S,7S)-25-Chloro-14-[4-(2,2-difluoroethylamino)butyl]-11-(3-hydroxypropyl)-17-(1H-indol-3-ylmethyl)-16-methyl-12,15,18-trioxo-2-thia-4,10,13,16,19-pentazatricyclo[19.4.0.03,8]pentacosa-1(21),3,5,7,22,24-hexaen-22-yl]phenyl]sulfonylacetamide]
630	CNCCCC[C@@H]1NC(=O)[C@H](CCCO)NCc2cccnc2Sc2c(Cl)ccc(-c3ccc(S(=O)(=O)NC(C)=O)cc3)c2CNC(=O)[C@H](Cc2c[nH]c3ccccc23)N(C)C1=O [Example 18.00, N-[4-[(11S,14S,17S)-25-Chloro-11-(3-hydroxypropyl)-17-(1H-indol-3-ylmethyl)-16-methyl-14-[4-(methylamino)butyl]-12,15,18-trioxo-2-thia-4,10,13,16,19-pentazatricyclo[19.4.0.03,8]pentacosa-1(21),3,5,7,22,24-hexaen-22-yl]phenyl]sulfonylacetamide]
300	CN1C(=O)[C@H](CCCCNCC(F)F)NC(=O)[C@H](CCCN)NCc2cccnc2Sc2c(Cl)ccc(-c3cnc(O)nc3)c2CNC(=O)[C@@H]1Cc1c[nH]c2ccccc12 [Example 19.00, (11S,14S,17S)-11-(3-Aminopropyl)-25-chloro-14-[4-(2,2-difluoroethylamino)butyl]-22-(2-hydroxypyrimidin-5-yl)-17-(1H-indol-3-ylmethyl)-16-methyl-2-thia-4,10,13,16,19-pentazatricyclo[19.4.0.03,8]pentacosa-1(21),3,5,7,22,24-hexaene-12,15,18-trione]
520	CC(=O)NS(=O)(=O)c1ccc(-c2ccc(Cl)c3c2CNC(=O)[C@H](Cc2c[nH]c4ccccc24)N(C)C(=O)[C@H](CCCCN)NC(=O)[C@H](CCCNCCC(=O)O)NCc2cccnc2S3)cc1 [Example 20.00, 3-[3-[(11S,14S,17S)-22-[4-(Acetylsulfamoyl)phenyl]-14-(4-aminobutyl)-25-chloro-17-(H-indol-3-ylmethyl)-16-methyl-12,15,18-trioxo-2-thia-4,10,13,16,19-pentazatricyclo[19.4.0.03,8]pentacosa-1(21),3,5,7,22,24-hexaen-11-yl]propylamino]propanoic acid]
10000	CN1C(=O)[C@H](CCCCN)NC(=O)[C@H](CCCN)NCc2cccnc2Sc2c(Cl)cc(-c3nnn[nH]3)cc2CNC(=O)[C@@H]1Cc1c[nH]c2ccccc12 [Example 21.00, (11S,14S,17S)-14-(4-Aminobutyl)-11-(3-aminopropyl)-25-chloro-17-(1H-indol-3-ylmethyl)-16-methyl-23-(1H-tetrazol-5-yl)-2-thia-4,10,13,16,19-pentazatricyclo[19.4.0.03,8]pentacosa-1(21),3,5,7,22,24-hexaene-12,15,18-trione]
180	CN1C(=O)[C@H](CCCCN)NC(=O)[C@H](CCCN)NCc2cccnc2Sc2c(Cl)cc(-c3cn[nH]n3)cc2CNC(=O)[C@@H]1Cc1c[nH]c2ccccc12 [Example 22.00, (11S,14S,17S)-14-(4-Aminobutyl)-1-(3-aminopropyl)-25-chloro-17-(1H-indol-3-ylmethyl)-16-methyl-23-(1H-triazol-5-yl)-2-thia-4,10,13,16,19-pentazatricyclo[19.4.0.03,8]pentacosa-1(21),3,5,7,22,24-hexaene-12,15,18-trione]
